“And” between values parts separate entries of the source, which are not always exact repeats. Identical values can stand only once. Square brackets hold non-standard residues; d marks the D form. Peptide text beside a SMILES is read from it. Hyp = O=C(O)[C@@H]1C[C@@H](O)CN1
Target: T1, recombinant human cGAS enzyme (hcGAS-ΔN, residues 147–522) (Homo sapiens, UniProt Q8N884)
T1 construct: N-terminally truncated human cGAS (hcGAS-ΔN, residues 147–522); 6xHis-SUMO (N, cleaved yes); made in house; host or cells: Escherichia coli BL21 (DE3)
T1 sequence (Q8N884 147-522, stated change not applied): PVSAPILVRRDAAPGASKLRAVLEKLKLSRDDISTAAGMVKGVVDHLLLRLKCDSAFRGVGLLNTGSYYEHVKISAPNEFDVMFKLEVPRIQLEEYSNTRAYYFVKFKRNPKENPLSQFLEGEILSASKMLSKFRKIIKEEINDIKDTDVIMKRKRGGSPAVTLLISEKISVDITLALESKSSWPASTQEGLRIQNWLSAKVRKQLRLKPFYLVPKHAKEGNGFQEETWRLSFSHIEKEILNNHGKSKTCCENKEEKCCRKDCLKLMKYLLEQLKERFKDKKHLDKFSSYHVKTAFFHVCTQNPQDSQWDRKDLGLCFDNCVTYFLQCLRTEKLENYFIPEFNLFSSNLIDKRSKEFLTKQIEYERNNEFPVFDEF
Assay: RNA-based fluorescent biosensor assay of cGAS activity (2',3'-cGAMP formation), in vitro screening
Format: biochemical
Settings: for Remaining activity (%), Fig. 1a source data / remaining activity at 20 µM: 20 μM, replicate values; for remaining activity at 20 µM: read-out: Remaining activity (%), Fig. 1a source data; for inhibition at 20 µM: peptides screened at 20 μM, Supplementary Table 1 / Fig. S5b, read-out: Inhibition %
Text: To screen direct cGAS inhibitors targeting protein-DNA interface from our developed focused library of macrocyclic peptides, we applied an RNA-based fluorescent biosensor for 2’,3’-cGAMP to detect cGAS activity in vitro (Supplementary Fig. 1a)[49]. The formation of 2’,3’-cGAMP from ATP and GTP was catalyzed by recombinant human cGAS enzyme (hcGAS-ΔN, residues 147–522, Supplementary Fig. 1b) in the presence of ISD (interferon stimulatory DNA, a 45-bp dsDNA), which was readily quantified by the RNA-based fluorescent biosensor and was further confirmed by ion exchange chromatography (Supplementary Fig. 1c). […] Subsequently, a total of 90 macrocyclic peptides were screened at a concentration of 20 μM (Fig. 1a and Supplementary Fig. 1e), and 4 hits (XQ2, XQ8, XQ19, and XQ46) were obtained for further testing at a cut-off of 40% inhibition (Supplementary Table 1). To evaluate the inhibitory effect of the hits against cGAS in cells, we employed real-time quantitative PCR (qPCR) to examine mRNA levels of IFNΒ1 in THP1 cells. The reported cGAS inhibitor RU.521 was used as the positive control, and the non-active peptide XQ28 in the screening assay was used as the negative control. […] The inhibition of cGAS by these hits was further confirmed in the reporter cell line THP1-Lucia ISG (Invivogen) that expresses secreted luciferase induced by an IRF3-inducible ISG54 promoter (Fig. 1c). The discrepancy between the inhibitory effect of the hits in protein and cellular assays may be attributed to their different cellular permeability.
The high-throughput screening (HTS) experiments of cGAS activity are based on the method previously described. To initiate the enzyme reaction, ISD was added to the reaction solution (40 mM Tris-HCl, pH 7.5, 100 mM NaCl, 10 mM MgCl2) containing hcGAS-ΔN, ATP (Sangon Biotech, Cat# A600311) and GTP (Sangon Biotech, Cat# A620332) in a total volume of 20 ul with the final concentration of 0.5 μM, 1.5 μM, 1 mM, 1 mM, respectively, and incubated for 2 h at 37 °C. For HTS experiments, compounds were added to the same reaction conditions as described above with the final concentration of 20 μM. Z’ factors were calculated from three replicates in the 384-well plate.

Remaining activity (%), Fig. 1a source data | remaining activity at 20 µM | inhibition at 20 µM | Compound
107.409% and 108.531% | 108% | 0% | CC(C)C[C@@H]1NC(=O)[C@H](CCCNC(=N)N)NC(=O)[C@H](C(C)C)NC(=O)[C@@H]2CCCN2C(=O)[C@@H](Cc2ccccc2)NC(=O)[C@H](C)NC(=O)[C@H](CCCNC(=N)N)NC(=O)[C@H](C(C)C)NC(=O)[C@@H]2CCCN2C(=O)[C@@H](C)NC1=O [XQ21, Cyclo (AfPVRLaPVR)] (cyclo(A[dF]PVRL[dA]PVR))
99.3962% and 98.6078% | 102% | 0% | CC(C)[C@@H]1NC(=O)[C@@H]2CCCN2C(=O)[C@@H](C)NC(=O)[C@H](C)NC(=O)[C@H](CCCNC(=N)N)NC(=O)[C@H](C(C)C)NC(=O)[C@@H]2CCCN2C(=O)[C@@H](Cc2ccccc2)NC(=O)[C@H](C)NC(=O)[C@H](CCCNC(=N)N)NC1=O [XQ22, Cyclo (AaPVRAfPVR)] (cyclo(A[dA]PVRA[dF]PVR))
103.183% and 102.415% | 103% | 0% | CC(C)C[C@H]1NC(=O)[C@H](Cc2ccccc2)NC(=O)[C@H]2CCCN2C(=O)[C@@H]([C@H](C)O)NC(=O)[C@@H](CCCNC(=N)N)NC(=O)[C@@H](CC(C)C)NC(=O)[C@H](Cc2ccccc2)NC(=O)[C@H]2CCCN2C(=O)[C@@H](C(C)C)NC(=O)[C@@H](CCCNC(=N)N)NC1=O [XQ23, Cyclo (tpFlrvpFlr)] (cyclo(F[dL][dR][dT][dP]F[dL][dR][dV][dP]))
93.4684% and 95.0442% | 94.2% | 5% | CC(C)C[C@H]1NC(=O)[C@H](Cc2ccccc2)NC(=O)[C@H]2CCCN2C(=O)[C@@H]([C@H](C)O)NC(=O)[C@@H](CCCNC(=N)N)NC(=O)[C@@H](CC(C)C)NC(=O)[C@H](Cc2ccccc2)NC(=O)[C@H]2CCCN2C(=O)[C@@H]([C@H](C)O)NC(=O)[C@@H](CCCNC(=N)N)NC1=O [XQ24, Cyclo (tpFlrtpFlr)] (cyclo(F[dL][dR][dT][dP]F[dL][dR][dT][dP]))
114.007% and 112.821% | 112% | 0% | CC(C)C[C@@H]1NC(=O)[C@H](CCCNC(=N)N)NC(=O)[C@@H]2CCCN2C(=O)[C@@H](Cc2ccccc2)NC(=O)[C@H](CCCNC(=N)N)NC(=O)[C@H](C(C)C)NC(=O)[C@@H]2CCCN2C(=O)[C@@H](Cc2ccccc2)NC1=O [XQ25, Cyclo (fPVRfPRL)] (cyclo(L[dF]PVR[dF]PR))
116.041% and 118.595% | 116% | 0% | N=C(N)NCCC[C@@H]1NC(=O)[C@@H]2CCCN2C(=O)[C@@H](Cc2ccccc2)NC(=O)[C@H](CCCNC(=N)N)NC(=O)[C@@H]2CCCN2C(=O)[C@@H](Cc2ccccc2)NC1=O [XQ26, Cyclo (PRfPRf)] (cyclo(PR[dF]PR[dF]))
109.194% and 109.746% | 107% | 0% | N=C(N)NCCC[C@@H]1NC(=O)[C@@H]2CCCN2C(=O)[C@H](Cc2ccccc2)NC(=O)[C@H](CCCNC(=N)N)NC(=O)[C@@H]2CCCN2C(=O)[C@@H](Cc2ccccc2)NC1=O [XQ27, Cyclo (RfPRFP)] (cyclo(FPR[dF]PR))
92.9858% and 93.5702% | 92.7% | 7% | CC(C)C[C@@H]1NC(=O)[C@H](CCCNC(=N)N)NC(=O)[C@H]([C@@H](C)O)NC(=O)[C@@H]2CCCN2C(=O)[C@@H](Cc2ccccc2)NC(=O)[C@H](Cc2ccccc2)NC(=O)[C@H](CCCNC(=N)N)NC(=O)[C@H]([C@@H](C)O)NC(=O)[C@@H]2CCCN2C(=O)[C@@H](Cc2ccccc2)NC1=O [XQ29, Cyclo (FfPTRLfPTR)] (cyclo(F[dF]PTRL[dF]PTR))
93.0523% and 92.7481% | 93.2% | 7% | CC(C)C[C@@H]1NC(=O)[C@H](CCCNC(=N)N)NC(=O)[C@H]([C@@H](C)O)NC(=O)[C@@H]2CCCN2C(=O)[C@@H](Cc2ccccc2)NC(=O)[C@H](C(C)C)NC(=O)[C@H](CCCNC(=N)N)NC(=O)[C@H]([C@@H](C)O)NC(=O)[C@@H]2CCCN2C(=O)[C@@H](Cc2ccccc2)NC1=O [XQ30, Cyclo (VfPTRLfPTR)] (cyclo(L[dF]PTRV[dF]PTR))
70.1575% and 70.5622% | 69.4% | 30% | CC(C)C[C@@H]1NC(=O)[C@H](CCCNC(=N)N)NC(=O)[C@H]([C@@H](C)O)NC(=O)[C@@H]2CCCN2C(=O)[C@@H](C(C)C)NC(=O)[C@H](CC(C)C)NC(=O)[C@H](CCCNC(=N)N)NC(=O)[C@H]([C@@H](C)O)NC(=O)[C@@H]2CCCN2C(=O)[C@@H](Cc2ccccc2)NC1=O [XQ31, Cyclo (LvPTRLfPTR)] (cyclo(L[dF]PTRL[dV]PTR))
69.874% and 69.5698% | 69.3% | 30% | CC(C)C[C@@H]1NC(=O)[C@H](CCCNC(=N)N)NC(=O)[C@H]([C@@H](C)O)NC(=O)[C@@H]2CCCN2C(=O)[C@@H](Cc2ccccc2)NC(=O)[C@H](CC(C)C)NC(=O)[C@H](CCCNC(=N)N)NC(=O)[C@H]([C@@H](C)O)NC(=O)[C@@H]2CCCN2C(=O)CNC1=O [XQ32, Cyclo (LgPTRLfPTR)] (cyclo(GPTRL[dF]PTRL))
98.2995% and 98.5649% | 97.1% | 2% | CC(C)C[C@@H]1NC(=O)[C@H](CCCNC(=N)N)NC(=O)[C@H]([C@@H](C)O)NC(=O)[C@@H]2C[C@@H](O)CN2C(=O)[C@@H](Cc2ccccc2)NC(=O)[C@H](CC(C)C)NC(=O)[C@H](CCCNC(=N)N)NC(=O)[C@H]([C@@H](C)O)NC(=O)[C@@H]2CCCN2C(=O)[C@@H](Cc2ccccc2)NC1=O [XQ33, Cyclo (Lf(Hyp)TRLfPTR)] (cyclo([Hyp]TRL[dF]PTRL[dF]))
102.306% and 102.914% | 103% | 0% | CC(C)C[C@@H]1NC(=O)[C@H](CCCNC(=N)N)NC(=O)[C@H]([C@@H](C)O)NC(=O)[C@@H]2CCCN2C(=O)[C@@H](Cc2ccccc2)NC(=O)[C@H](CC(C)C)NC(=O)[C@H](CCCNC(=N)N)NC(=O)[C@H]([C@@H](C)O)NC(=O)[C@@H]2CCCN2C(=O)[C@@H](C)NC1=O [XQ34, Cyclo (LaPTRLfPTR)] (cyclo(L[dA]PTRL[dF]PTR))
106.53% and 106.617% | 106% | 0% | CC(C)C[C@@H]1NC(=O)[C@H](CCCNC(=N)N)NC(=O)[C@H]([C@@H](C)O)NC(=O)[C@@H]2CCCN2C(=O)[C@@H](Cc2ccccc2)NC(=O)[C@H](CC(C)C)NC(=O)[C@H](CCCNC(=N)N)NC(=O)[C@H]([C@@H](C)O)NC(=O)[C@H](C)NC(=O)[C@@H](Cc2ccccc2)NC1=O [XQ35, Cyclo (LfATRLfPTR)] (cyclo(ATRL[dF]PTRL[dF]))
88.7067% and 87.9053% | 89.5% | 11% | CC(C)C[C@@H]1NC(=O)[C@H](CCCNC(=N)N)NC(=O)[C@H]([C@@H](C)O)NC(=O)[C@@H]2CCCN2C(=O)[C@@H](Cc2ccccc2)NC(=O)[C@H](CC(C)C)NC(=O)[C@H](CCCNC(=N)N)NC(=O)[C@H](C)NC(=O)[C@@H]2CCCN2C(=O)[C@@H](Cc2ccccc2)NC1=O [XQ36, Cyclo (LfPARLfPTR)] (cyclo(ARL[dF]PTRL[dF]P))
81.1407% and 81.3464% | 81% | 18% | CC(C)C[C@@H]1NC(=O)[C@H](CCCNC(=N)N)NC(=O)[C@H]([C@@H](C)O)NC(=O)[C@@H]2CCCN2C(=O)[C@@H](Cc2ccccc2)NC(=O)[C@H](C)NC(=O)[C@H](CCCNC(=N)N)NC(=O)[C@H]([C@@H](C)O)NC(=O)[C@@H]2CCCN2C(=O)[C@@H](Cc2ccccc2)NC1=O [XQ37, Cyclo (AfPTRLfPTR)] (cyclo(A[dF]PTRL[dF]PTR))
112.545% and 112.328% | 113% | 0% | CC(C)C[C@@H]1NC(=O)[C@H](CCCNC(=N)N)NC(=O)[C@H](C(C)C)NC(=O)[C@@H]2CCCN2C(=O)[C@@H](Cc2ccccc2)NC(=O)[C@H](CC(C)C)NC(=O)[C@H](CCCNC(=N)N)NC(=O)[C@H](C(C)C)NC(=O)[C@@H]2CCCN2C(=O)[C@@H](Cc2ccccc2)NC1=O [XQ38, Cyclo (LfPVRLfPVR)] (cyclo(L[dF]PVRL[dF]PVR))
